Test results from patent publication US20150104868A1, “Methods of Maintaining and Improving Biological Cell Function and Activity” (GARGILL INCORPORATED, priority 2012, published 2015).

Tested on: CRL 1730 HUVECs
Assay: Microarray transcriptomics of HUVEC (HGERT/HG, HG/NG)
Format: cell-based, human
Conditions: HUVEC; 5 mM ERT + 30 mM glucose vs 30 mM glucose

OC[C@@H](O)[C@@H](O)CO [ERT, meso-1,2,3,4-tetrahydroxybutane]
HGERT/HG transcript DAP: Ψ 1.01
HGERT/HG transcript DBT: Ψ 1.01
HGERT/HG transcript DCAKD: Ψ 1.03
HGERT/HG transcript DDX54: 0.99 Ω
HGERT/HG transcript DYNLT1: 0.99 Ω
HGERT/HG transcript EID2: 0.99
HGERT/HG transcript ENG: Ψ 1.01
HGERT/HG transcript ESD: 0.99 Ω
HGERT/HG transcript FASTKD1: 0.99 Ω
HGERT/HG transcript FASTKD3: 0.99 Ω
HGERT/HG transcript FBLIM1: Ψ 1.02
HGERT/HG transcript FOXC1: Ψ 1.01
HGERT/HG transcript FURIN: Ψ 1.02
HGERT/HG transcript GJC1: Ψ 1.02
HGERT/HG transcript GNAI2: Ψ 1.02
HGERT/HG transcript GOLGA2: Ψ 1.04
HGERT/HG transcript GPR124: Ψ 1.02
HGERT/HG transcript GSN: Ψ 1.03
HGERT/HG transcript HADH: 0.99
HGERT/HG transcript HIATL1: 0.99
HGERT/HG transcript HIG2: Ψ 1.01
HGERT/HG transcript HIP1: Ψ 1.05
HGERT/HG transcript HLTF: 0.99 Ω
HGERT/HG transcript HPCAL1: Ψ 1.01
HGERT/HG transcript HSPE1: 0.99 Ω
HGERT/HG transcript IFI6: Ψ 1.13
HGERT/HG transcript IFT20: 1.00 Ω
HGERT/HG transcript KIDINS220: Ψ 1.01
HGERT/HG transcript KIF1B: Ψ 1.01
HGERT/HG transcript LIMK1: Ψ 1.01
HGERT/HG transcript LUC7L2: 0.99
HGERT/HG transcript LYN: Ψ 1.02
HGERT/HG transcript MAGED1: 1.00 Ω
HGERT/HG transcript MAP4K3: 0.98 Ω
HGERT/HG transcript MARK2: Ψ 1.03
HGERT/HG transcript MBIP: 0.98
HGERT/HG transcript MFSOL: 0.99
HGERT/HG transcript MTM1: 0.98
HGERT/HG transcript MYST4: Ψ 1.03
HGERT/HG transcript Magmas: 0.98
HGERT/HG transcript NAP8: 0.98
HGERT/HG transcript NCK2: Ψ 1.01
HGERT/HG transcript NDE1: Ψ 1.01
HGERT/HG transcript NDUFA4: 0.99
HGERT/HG transcript NOTCH1: Ψ 1.02
HGERT/HG transcript OTUD5: Ψ 1.01
HGERT/HG transcript OXCT1: 0.99
HGERT/HG transcript PAQR3: 0.98 Ω
HGERT/HG transcript PDCD7: Ψ 1.02
HGERT/HG transcript PDIA5: Ψ 1.01
HGERT/HG transcript PHF16: 0.99
HGERT/HG transcript PITRM1: Ψ 1.01
HGERT/HG transcript PLCD4: 0.99
HGERT/HG transcript PLEC1: Ψ 1.03
HGERT/HG transcript PLEK2: 0.96 Ω
HGERT/HG transcript PLEKHA3: 0.99
HGERT/HG transcript PRRX1: Ψ 1.01
HGERT/HG transcript PXN: Ψ 1.01
HGERT/HG transcript RHOB: Ψ 1.02
HGERT/HG transcript RNF20: 0.99
HGERT/HG transcript RP2: 0.98 Ω
HGERT/HG transcript RPS6KA2: Ψ 1.01
HGERT/HG transcript RSU1: 0.99 Ω
HGERT/HG transcript SACM1L: 0.98
HGERT/HG transcript SAMHD1: Ψ 1.07
HGERT/HG transcript SAMM50: 0.99
HGERT/HG transcript SCFD1: 0.99
HGERT/HG transcript SDHC: 0.96 Ω
HGERT/HG transcript SDHD: 0.98 Ω
HGERT/HG transcript SEC31A: Ψ 1.01
HGERT/HG transcript SEC61G: 0.99
HGERT/HG transcript SENP3: Ψ 1.01
HGERT/HG transcript SESTD1: Ψ 1.01
HGERT/HG transcript SETD3: 0.99
HGERT/HG transcript SFT2D2: 0.98
HGERT/HG transcript SFXN4: 0.98
HGERT/HG transcript SH3PXD2B: Ψ 1.01
HGERT/HG transcript SLC2A12: Ψ 1.03
HGERT/HG transcript SLC25A24: 0.99 Ω
HGERT/HG transcript SLC25A43: 0.98
HGERT/HG transcript SLC30A6: 0.99
HGERT/HG transcript SLC41A2: 0.99
HGERT/HG transcript SLK: 0.99 Ω
HGERT/HG transcript SMOX: 0.99 Ω
HGERT/HG transcript SNX3: 0.99
HGERT/HG transcript SNX14: 0.99
HGERT/HG transcript SOAT1: 0.97 Ω
HGERT/HG transcript SOS1: Ψ 1.06
HGERT/HG transcript STK39: 0.98 Ω
HGERT/HG transcript STXBP3: 0.98
HGERT/HG transcript SUCLA2: 0.99 Ω
HGERT/HG transcript SUDS3: 0.99
HGERT/HG transcript TACC1: Ψ 1.01
HGERT/HG transcript TCEAL1: 0.99 Ω
HGERT/HG transcript TCF12: 0.99 Ω
HGERT/HG transcript TGM2: Ψ 1.01
HGERT/HG transcript TIMM8B: 0.99
HGERT/HG transcript TIMP2: Ψ 1.01
HGERT/HG transcript TMEM14C: 0.99
